The assay addresses T1, 11β-HSD2 (Homo sapiens, UniProt P80365).
T1 construct: gene HSD11B2
T1 sequence (P80365 1-405): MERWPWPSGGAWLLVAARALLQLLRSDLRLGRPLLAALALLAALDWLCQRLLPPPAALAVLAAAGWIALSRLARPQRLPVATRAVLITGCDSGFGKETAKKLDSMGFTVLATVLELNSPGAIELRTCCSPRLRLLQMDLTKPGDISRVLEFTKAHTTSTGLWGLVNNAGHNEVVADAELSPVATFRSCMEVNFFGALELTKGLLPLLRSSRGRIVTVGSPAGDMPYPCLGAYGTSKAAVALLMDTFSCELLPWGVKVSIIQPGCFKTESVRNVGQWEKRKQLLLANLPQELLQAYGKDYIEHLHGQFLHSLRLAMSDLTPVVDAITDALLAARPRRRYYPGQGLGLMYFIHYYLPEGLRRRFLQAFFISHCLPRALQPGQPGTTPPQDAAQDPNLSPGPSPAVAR
The assay is described as follows: % inhibition at […], human kidney microsomes, cortisol ELISA. Format: cell-based. As to conditions: read-out: % of 11β-HSD2 Inhibition 10 μM/IC50 [μM] ^a. (In general: An ELISA detects its analyte on a solid surface through an enzyme-linked reagent.)

On to `CCC1SC(NC(C)C)=NC1=O` (stereo not shown) [3b, 5-Ethyl-2-(isopropylamino)thiazol-4(5H)-one], for which the inhibition at 10 µM was 47.1 ± 2.51%.

The values are drawn from PMC7570983, “Synthesis of Novel 2-(Isopropylamino)thiazol-4(5H)-one Derivatives and Their Inhibitory Activity of 11β-HSD1 and 11β-HSD2 in Aspect of Carcinogenesis Prevention” (Molecules, 2020).
